In test [1] the test system is human lung cancer cells (A549) subcutaneous xenograft. Kind of test: lung cancer subcutaneous xenograft animal model, intravenous injection. The format is in vivo, mice (BALB/c-nu/nu). To be noted: intravenous 60 mg/kg once every other day, 20 days; for Weight of tumor (g) (mean ± SD): control 2.53 ± 0.17; for Volume of tumor (mm^3) (mean ± SD): control 3373.26 ± 581.44. The essentials: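 Female BALB/c-nu/nu mice (4-6 weeks) inoculated subcutaneously with ~2×10^6 A549 cells; grouped once tumours exceeded 100 mm^3. Peptides given intravenously at 60 mg/kg for 20 days versus model control. Tumour weight and volume measured at dissection; body weight recorded every other day.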

The subject of test [2] is human pancreatic cancer cells (PANC-1). Kind of test: scratch assay, migration of PANC-1 cells. The format is cell-based. To be noted: PANC-1, 10 μM, 48 hours; control group 66.65 ± 3.37. The method, boiled down: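 PANC-1 monolayers were scratched, then cultured for 48 h with 10 μM test compound in 2% FBS medium, in three parallel wells per group against a PBS control. Migration rate (%) was calculated as (original minus current scratch width) / original width × 100, from imaged wells.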

The test system is the same in test [3]. Kind of test: transwell invasion assay, PANC-1 cells. The test is classed as cell-based. The conditions noted are these: PANC-1 transwell invasion, 10 μM, 24 hours; control group 727 ± 68. The method, boiled down: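 Serum-free PANC-1 cells were seeded in matrigel-coated upper chambers with complete medium below. After 4-5 hours at 37° C., peptide was added at 10 μM final. Following 24 hours, invaded cells on the lower membrane surface were fixed, crystal violet-stained, imaged and counted against untreated controls.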

Test [4] has as its system human liver cancer cells (HepG2). Kind of test: scratch assay, migration of HepG2 cells. The test is classed as cell-based. To be noted: HepG2, 10 μM, 48 hours; control group 71.01 ± 6.63. The method, boiled down: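 HepG2 monolayers scratched, then cultured 48 h in 2% FBS medium with test polypeptides at 10 μM versus PBS control, triplicate wells. Migration rate (%) computed from original versus current scratch width in images.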

Test [5] deals with human breast cancer cells (MDA-MB-453). Kind of test: scratch assay, migration of MDA-MB-453 cells. The format is cell-based. To be noted: MDA-MB-453, 10 μM, 48 hours; control group 32.42 ± 2.04. The essentials: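 Confluent MDA-MB-453 monolayers were scratched, then treated with peptide at 10 μM in 2% FBS medium for 48 h, with a PBS control and triplicate wells. Migration rate (%) was taken as (original − current scratch width)/original width ×100 from images.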

Test [6] relates to human breast cancer cells (MDA-MB-231). Kind of test: scratch assay, migration of MDA-MB-231 cells. The test is classed as cell-based. To be noted: MDA-MB-231, 10 μM, 48 hours; control group 36.19 ± 5.15. The essentials:
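MDA-MB-231 monolayers (1-2×10^5 cells/well) were scratched, then kept 48 h in medium with 2% FBS containing polypeptide at 10 μM, with a PBS control, in triplicate wells. Migration rate (%) was taken from scratch width: (original − current)/original ×100.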

Test [7] relates to human breast cancer cells (MCF-7). Kind of test: scratch assay, migration of MCF-7 cells. The test is classed as cell-based. To be noted: MCF-7, 10 μM, 48 hours; control group 30.97 ± 1.79. The method, boiled down:
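MCF-7 monolayers scratched, then cultured 48 hours in 2% FBS medium with test peptide at 10 μM versus PBS control, triplicate wells. Migration rate (%) = (original − current scratch width)/original width × 100, measured from images.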

Test [8] deals with human prostate cancer cells (22RV1). Kind of test: scratch assay, migration of 22RV1 cells. To be noted: 22RV1, 10 μM, 48 hours; control group 25.41 ± 5.01. The format is cell-based. The method, boiled down: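 22RV1 monolayers (seeded 1-2×10^5 cells/well) were scratched, washed, then given 2% FBS medium with 10 μM polypeptide or PBS, triplicate wells, for 48 h. Migration rate (%) = (original − current scratch width)/original width ×100, from ≥3 images per well.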

Data on nine substances can be found in patent publication US20220280594A1, “APPLICATION OF POLYPEPTIDE OR DERIVATIVE THEREOF” (CHENGDU HUITAI BIOMEDICINE CO., LTD., priority 2019, published 2022).

Ends that are not written are not given here. PEG = not defined here

“N32: SEQ ID NO: 1 with deletion of positions 1-3, addition of one amino acid and PEG modification at the carboxyl terminal (RFLAKENVTQDAEDNC-{PEG}; reading uncertain)”: the “Weight of tumor (g) (mean ± SD)” value in test [1] came out at 0.88 ± 0.38 g. Also, in test [1], the “Volume of tumor (mm^3) (mean ± SD)” value was 1630.6 ± 424.84 mm^3. Besides, the “Migration rate (%) (mean ± SD, P)” value in test [2] was 15.49 ± 8.35,*** %; in test [4] it was 15.49 ± 8.35,*** %; in test [5], 17.55 ± 3.48,** %; in test [6] it was 13.33 ± 3.83,** %; in test [7] it was 14.18 ± 2.82,** %; in test [8] it was 8.68 ± 1.66,** %. Further, the “Number of cells (mean ± SD, P), invaded cells” value (“Number of cells (mean ± SD, P)” below) in test [3] is reported as 251 ± 10,****.
In the case of “N33: SEQ ID NO: 1 with deletion of positions 1-5, addition of one amino acid and PEG modification at the carboxyl terminal (LAKENVTQDAEDNC-{PEG}; reading uncertain)”, the “Weight of tumor (g) (mean ± SD)” value in test [1] is 0.57 ± 0.24 g. Besides, in test [1], the “Volume of tumor (mm^3) (mean ± SD)” value was 1699.23 ± 709.14 mm^3. Also, the “Migration rate (%) (mean ± SD, P)” value in test [2] was 39.27 ± 3.14,* %; in test [4], 19.27 ± 8.14,*** %; in test [5], 10.76 ± 4.13,*** %; in test [6], 22.68 ± 3.02,* %; in test [7], 18.97 ± 2.44,* %; in test [8], 10.03 ± 2.15,* %. For the same substance, the “Number of cells (mean ± SD, P)” value in test [3] was 345 ± 27,***.
For the substance “N34: SEQ ID NO: 1 with A15R, addition of one amino acid at the carboxyl terminal, PEG modification at the amino terminal ({PEG}-YRVRFLAKENVTQDREDNC; reading uncertain)”, the “Weight of tumor (g) (mean ± SD)” value in test [1] stood at 1.06 ± 0.15 g. For the same substance, the “Volume of tumor (mm^3) (mean ± SD)” value in test [1] was found to be 1472.21 ± 914.38 mm^3. For the same substance, the “Migration rate (%) (mean ± SD, P)” value in test [2] is 28.58 ± 3.87,*** %; in test [4] it was 18.58 ± 7.87,*** %; in test [5], 9.57 ± 3.68,*** %; in test [6], 17.34 ± 4.82,* %; in test [7], 15.23 ± 4.39,* %; in test [8], 5.00 ± 2.29,** %. Also, the “Number of cells (mean ± SD, P)” value in test [3] is 346 ± 30,***.
Consider “N35: SEQ ID NO: 1 with A15R, addition of one amino acid and PEG modification at the carboxyl terminal (YRVRFLAKENVTQDREDNC-{PEG}; reading uncertain)”, for which the “Weight of tumor (g) (mean ± SD)” value in test [1] came out at 0.75 ± 0.24 g. Moreover, the “Volume of tumor (mm^3) (mean ± SD)” value in test [1] is given as 1097.54 ± 216.63 mm^3. Further, the “Migration rate (%) (mean ± SD, P)” value in test [2] is listed as 36.83 ± 5.92,** %; in test [4] it was 16.83 ± 7.92,*** %; in test [5] it was 8.46 ± 2.77,*** %; in test [6], 18.12 ± 5.23,* %; in test [7], 17.38 ± 2.55,* %; in test [8], 7.13 ± 2.23,** %. Also, the “Number of cells (mean ± SD, P)” value in test [3] is given as 358 ± 23,***.
“N37: SEQ ID NO: 1 with addition of two amino acids to the carboxyl terminal and PEG modification at the amino terminal ({PEG}-YRVRFLAKENVTQDAEDNCT; reading uncertain)”: in test [1], the “Weight of tumor (g) (mean ± SD)” value turned out to be 0.89 ± 0.39 g. Also, the “Volume of tumor (mm^3) (mean ± SD)” value in test [1] worked out at 915.97 ± 199.07 mm^3. The “Migration rate (%) (mean ± SD, P)” value in test [2] is reported as 18.23 ± 6.77,*** %; in test [4], 13.81 ± 6.14,*** %; in test [5], 15.13 ± 3.55,** %; in test [6], 20.43 ± 3.23,* %; in test [7] it was 8.64 ± 3.76,** %; in test [8], 4.86 ± 1.91,** %. For the same substance, the “Number of cells (mean ± SD, P)” value in test [3] is reported as 359 ± 34,***.
“N38: SEQ ID NO: 1 with one amino acid added at each terminal and PEG modification at the carboxyl terminal (FYRVRFLAKENVTQDAEDNC-{PEG}; reading uncertain)”: in test [1], the “Weight of tumor (g) (mean ± SD)” value is 0.71 ± 0.27 g. The “Volume of tumor (mm^3) (mean ± SD)” value in test [1] turned out to be 927.9 ± 205.31 mm^3. Moreover, the “Migration rate (%) (mean ± SD, P)” value in test [2] is 24.87 ± 5.81,*** %; in test [4], 12.81 ± 7.32,*** %; in test [5], 12.46 ± 2.5,*** %; in test [6], 18.99 ± 3.25,* %; in test [7], 6.93 ± 2.24,** %; in test [8] it was 7.73 ± 1.58,** %. The “Number of cells (mean ± SD, P)” value in test [3] is 2.62 ± 21,****.
With “N39: SEQ ID NO: 1 with addition of two amino acids and PEG modification at the carboxyl terminal (YRVRFLAKENVTQDAEDNTC-{PEG}; reading uncertain)”, the “Weight of tumor (g) (mean ± SD)” value in test [1] was 0.98 ± 0.3 g. Moreover, the “Volume of tumor (mm^3) (mean ± SD)” value in test [1] is reported as 918.84 ± 288.77 mm^3. Moreover, the “Migration rate (%) (mean ± SD, P)” value in test [2] was 16.29 ± 8.00,*** %; in test [4] it was 15.73 ± 6.79,*** %; in test [5] it was 11.02 ± 6.8,** %; in test [6], 19.08 ± 3.17,* %; in test [7] it was 7.74 ± 2.46,** %; in test [8], 4.21 ± 2.81,** %. For the same substance, in test [3], the “Number of cells (mean ± SD, P)” value is on record as 278 ± 16,****.
As to “N40: SEQ ID NO: 1 with deletion of positions 1-5 and 15-18, PEG at the amino terminal, two amino acids added at the carboxyl terminal ({PEG}-LAKENVTQDRC; reading uncertain)”, in test [1], the “Weight of tumor (g) (mean ± SD)” value was determined as 0.98 ± 0.36 g. For the same substance, in test [1], the “Volume of tumor (mm^3) (mean ± SD)” value was determined as 997.42 ± 267.79 mm^3. In addition, the “Migration rate (%) (mean ± SD, P)” value in test [2] is on record as 13.24 ± 8.56,*** %; in test [4], 32.55 ± 4.09,** %; in test [5], 13.88 ± 6.51,** %; in test [6], 21.12 ± 4.15,* %; in test [7], 4.36 ± 1.35,*** %; in test [8], 6.65 ± 2.54,** %. Besides, in test [3], the “Number of cells (mean ± SD, P)” value is 273 ± 21,****.
For “N41: SEQ ID NO: 1 with addition of two amino acids at the amino terminal, deletion of position 18, PEG at the carboxyl terminal (FRYRVRFLAKENVTQDAED-{PEG}; reading uncertain)”, in test [1], the “Weight of tumor (g) (mean ± SD)” value amounted to 0.84 ± 0.34 g. In test [1], the “Volume of tumor (mm^3) (mean ± SD)” value amounted to 1075.33 ± 350.78 mm^3. Further, the “Migration rate (%) (mean ± SD, P)” value in test [2] is reported as 14.44 ± 7.40,*** %; in test [4], 25.59 ± 6.26,*** %; in test [5], 11.5 ± 3.23,*** %; in test [6] it was 14.75 ± 4.28,** %; in test [7], 5.19 ± 2.94,*** %; in test [8], 7.83 ± 1.84,** %. Also, the “Number of cells (mean ± SD, P)” value in test [3] is 288 ± 38,****.
